{"source": "ChEMBL document CHEMBL1201862", "about": "“PubChem BioAssay data set” (2004)", "key": {"Large T antigen": {"molecular_target": "Large T antigen (Simian virus 40, UniProt P03070)", "sequence (P03070 whole entry)": "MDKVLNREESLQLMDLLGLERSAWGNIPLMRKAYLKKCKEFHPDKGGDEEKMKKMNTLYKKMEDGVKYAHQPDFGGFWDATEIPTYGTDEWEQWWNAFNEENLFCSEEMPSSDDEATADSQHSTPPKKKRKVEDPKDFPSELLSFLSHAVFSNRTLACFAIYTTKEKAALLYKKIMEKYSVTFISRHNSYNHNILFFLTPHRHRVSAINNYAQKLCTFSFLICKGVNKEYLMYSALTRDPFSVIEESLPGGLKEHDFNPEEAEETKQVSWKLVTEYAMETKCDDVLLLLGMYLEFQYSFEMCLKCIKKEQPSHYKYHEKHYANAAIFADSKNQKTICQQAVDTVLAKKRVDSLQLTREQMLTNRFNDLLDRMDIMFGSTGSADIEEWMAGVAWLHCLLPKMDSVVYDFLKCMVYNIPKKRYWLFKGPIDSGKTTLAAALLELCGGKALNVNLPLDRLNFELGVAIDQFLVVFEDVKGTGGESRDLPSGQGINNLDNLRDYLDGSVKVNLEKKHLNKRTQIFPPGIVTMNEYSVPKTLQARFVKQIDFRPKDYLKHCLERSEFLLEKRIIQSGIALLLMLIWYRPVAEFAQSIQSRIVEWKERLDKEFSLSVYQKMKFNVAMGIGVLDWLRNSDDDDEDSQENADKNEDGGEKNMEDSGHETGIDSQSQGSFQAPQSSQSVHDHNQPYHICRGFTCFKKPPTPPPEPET", "type": "functional, Betapolyomavirus macacae"}, "[1]": {"molecular_target": "Induced myeloid leukemia cell differentiation protein Mcl-1 (Homo sapiens, UniProt Q07820)", "sequence (Q07820 whole entry)": "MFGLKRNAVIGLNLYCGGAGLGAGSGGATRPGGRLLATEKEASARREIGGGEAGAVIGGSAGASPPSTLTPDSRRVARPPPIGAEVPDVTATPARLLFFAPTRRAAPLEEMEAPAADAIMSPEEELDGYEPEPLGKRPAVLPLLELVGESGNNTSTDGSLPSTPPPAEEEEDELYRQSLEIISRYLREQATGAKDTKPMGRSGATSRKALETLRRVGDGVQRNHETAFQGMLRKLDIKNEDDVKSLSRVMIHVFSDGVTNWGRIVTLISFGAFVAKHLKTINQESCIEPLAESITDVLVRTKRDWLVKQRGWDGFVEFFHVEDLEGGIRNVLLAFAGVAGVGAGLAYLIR", "type": "functional"}, "Leucine aminopeptidase": {"molecular_target": "T1, Leucine aminopeptidase (Plasmodium falciparum 3D7, UniProt Q8IL11)", "T1 sequence (Q8IL11 whole entry)": "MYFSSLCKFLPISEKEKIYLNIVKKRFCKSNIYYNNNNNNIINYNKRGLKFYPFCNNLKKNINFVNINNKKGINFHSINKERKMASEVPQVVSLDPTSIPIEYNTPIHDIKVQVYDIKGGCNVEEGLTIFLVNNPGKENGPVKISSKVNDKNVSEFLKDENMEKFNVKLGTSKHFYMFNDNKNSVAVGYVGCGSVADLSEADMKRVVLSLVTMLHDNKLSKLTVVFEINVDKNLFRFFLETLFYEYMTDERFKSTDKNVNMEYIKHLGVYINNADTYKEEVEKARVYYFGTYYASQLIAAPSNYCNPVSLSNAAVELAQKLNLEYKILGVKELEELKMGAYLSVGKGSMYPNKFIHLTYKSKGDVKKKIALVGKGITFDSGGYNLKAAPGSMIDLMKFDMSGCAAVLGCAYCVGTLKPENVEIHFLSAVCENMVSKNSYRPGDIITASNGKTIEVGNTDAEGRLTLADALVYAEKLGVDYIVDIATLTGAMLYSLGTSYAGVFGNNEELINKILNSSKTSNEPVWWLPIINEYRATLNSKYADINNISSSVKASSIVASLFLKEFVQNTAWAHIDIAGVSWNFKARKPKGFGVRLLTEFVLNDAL", "test": "P. falciparum M17LAP inhibitors, primary screen, biochemical, fluorogenic H-Leu-NHMec substrate, 1536-well (AID 1619)", "type": "functional"}, "[2]": {"test": "cytotoxicity in HEK-293T cells, dose response, cytotoxicity control for TCR NF-kB inhibitor project, luminescence, T-cell screen hits (AID 489026);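 further: cells exposed to compound about 14 hours before the viability readout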", "type": "functional, cell-based"}, "[3]": {"test": "off-target signal loss in HeLa-CEM21 co-culture – HeLa F-luc CTL cells, cherry-picked, counter-screen for HIV-1 Env fusion inhibitor project, dose response (AID 652040);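 further: potency for signal decrease marking cytotoxic or nonspecific inhibition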", "type": "functional, cell-based"}, "[4]": {"molecular_target": "T2, Carboxy-terminal domain RNA polymerase II polypeptide A small phosphatase 1 (Homo sapiens, UniProt Q9GZU7)", "T2 sequence (Q9GZU7 whole entry)": "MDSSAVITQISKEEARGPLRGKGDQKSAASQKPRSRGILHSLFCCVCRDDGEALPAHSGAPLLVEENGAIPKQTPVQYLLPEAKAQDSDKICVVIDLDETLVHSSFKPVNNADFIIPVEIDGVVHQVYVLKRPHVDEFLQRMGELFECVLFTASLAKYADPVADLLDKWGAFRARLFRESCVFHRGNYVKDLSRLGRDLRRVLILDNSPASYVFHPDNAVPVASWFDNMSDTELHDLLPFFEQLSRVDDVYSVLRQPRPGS", "test": "inhibitors of CTDSP1, concentration-response testing, biochemical assay, absorbance-based, actives from ultra-high-throughput screening (AID 540297)", "type": "functional"}, "[5]": {"test": "intracellular Trypanosoma cruzi inhibitors in host cells – cell-based, plate reader, cherry-pick samples, set 3, dose response (AID 651818);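 further: compounds incubated with infected cells for about four days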", "type": "functional"}, "Beta-lactamase [6]": {"molecular_target": "T3, Beta-lactamase (Pseudomonas aeruginosa, UniProt Q79MP6)", "T3 sequence (Q79MP6 whole entry)": "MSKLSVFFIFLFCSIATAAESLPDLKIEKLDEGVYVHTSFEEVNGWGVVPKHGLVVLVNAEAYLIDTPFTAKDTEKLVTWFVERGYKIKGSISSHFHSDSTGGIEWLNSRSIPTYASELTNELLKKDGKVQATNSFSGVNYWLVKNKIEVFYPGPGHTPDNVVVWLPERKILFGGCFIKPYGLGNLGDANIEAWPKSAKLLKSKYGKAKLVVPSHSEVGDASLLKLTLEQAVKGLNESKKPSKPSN", "test": "IMP-1 metallo-beta-lactamase inhibitors, dose response, selectivity assay for VIM-2 inhibitor project, biochemical, epi-absorbance (AID 1920)"}, "Beta-lactamase [7]": {"molecular_target": "T3, Beta-lactamase", "test": "[…] counterscreen for selective VIM-2 inhibitors: dose response biochemical high throughput screening assay to identify inhibitors of IMP-1 metallo-beta-lactamase."}, "Beta-lactamase [8]": {"molecular_target": "Beta-lactamase (Salmonella choleraesuis (strain SC-B67), UniProt Q5J463)", "sequence (Q5J463 whole entry)": "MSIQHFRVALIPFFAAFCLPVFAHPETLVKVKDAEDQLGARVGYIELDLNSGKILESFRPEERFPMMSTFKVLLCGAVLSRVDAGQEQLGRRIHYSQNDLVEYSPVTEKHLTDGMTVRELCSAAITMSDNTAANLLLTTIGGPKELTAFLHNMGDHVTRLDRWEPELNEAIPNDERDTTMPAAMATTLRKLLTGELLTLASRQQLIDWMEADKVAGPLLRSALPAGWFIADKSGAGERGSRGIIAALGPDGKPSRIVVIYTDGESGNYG", "test": "Epi-absorbance-based counterscreen for selective VIM-2 inhibitors: dose response biochemical high throughput screening assay to identify inhibitors of TEM-1 serine-beta-lactamase."}, "[9]": {"test": "inhibitors of HIV Env-driven cell fusion, dose response, cherry-pick (AID 652057)", "type": "functional, cell-based"}, "[10]": {"test": "inhibitors of clade B AD8 Env fusion, dose response, cell-based, cherry-pick (AID 652062);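 further: potency is for inhibitors of fusion seen as a drop in luminescence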", "type": "functional"}, "[11]": {"test": "ZM109 Env clade C HIV-1 fusion inhibitors, dose response, HeLa effector, CEM target cells, luciferase, cherry-pick (AID 652058)", "type": "functional, cell-based"}, "[12]": {"test": "P. falciparum Dd2 growth inhibitors, dose response, SYBR Green, dry powder samples (AID 1159566);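 further: potency for growth inhibition with lower SYBR green DNA signal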", "type": "functional, cell-based"}, "[13]": {"test": "P. falciparum 3D7-ScDHODH growth inhibitors, dose response, SYBR Green, dry powder samples (AID 1159570);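 further: parasite growth measured after 72 hours of compound exposure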", "type": "functional, cell-based"}, "[14]": {"test": "HepG2 cell cytotoxicity, dose response, cytotoxicity control, plate reader, dry powder samples (AID 1159569);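 further: inhibitor potency with signal falling toward the positive control level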", "type": "functional, cell-based"}, "[15]": {"test": "P. falciparum Dd2 growth inhibitors, dose response, SYBR Green, cherry-picked samples (AID 1159567)", "type": "functional, cell-based"}, "[16]": {"test": "P. falciparum ATP4 D1247Y mutant growth inhibitors, dose response, NITD609-resistant line, SYBR Green, dry powder (AID 1159571);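 further: parasites synchronized at ring stage by sorbitol before testing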", "type": "functional, cell-based"}}, "note": "The source made the active and inactive calls."}
{"smiles": "CCOC(=O)c1c(NC(C)=O)sc2c(O)c(Br)cc(Br)c12", "values": [{"measurement": "IC50", "setting": "Large T antigen", "result": "56.7 µM (active)"}, {"measurement": "IC50", "setting": "[1]", "result": "4.76 µM (active)"}]}
{"smiles": "Cc1ccccc1NC(=O)CSc1nc(O)cc(C)c1C#N", "values": [{"measurement": "IC50", "setting": "Leucine aminopeptidase", "result": "10.9 µM (active)"}]}
{"smiles": "COc1ccc(NC(=O)C(=O)NCC2CCCN2S(=O)(=O)c2cccs2)cc1", "note": "(stereo not given)", "values": [{"measurement": "IC50", "setting": "[2]", "result": "> 80 µM (inactive)"}, {"measurement": "AC50", "setting": "[3]", "result": "> 70 µM (inactive)"}]}
{"smiles": "CCC1(C(=O)OC)CCc2c(cc(OC)c3ccccc23)C1=O", "note": "(stereo not given)", "values": [{"measurement": "IC50", "setting": "[1]", "result": "> 54 µM (not active)"}]}
{"smiles": "O=c1/c(=C/c2ccc(O)c([N+](=O)[O-])c2)sc2nc3ccccc3n12", "values": [{"measurement": "IC50", "setting": "[4]", "result": "1.83 µM (active)"}, {"measurement": "IC50", "setting": "[1]", "result": "3.94 µM (active)"}]}
{"smiles": "COC(=O)c1ccc(Cl)c(NC(=O)CSc2nnc[nH]2)c1", "values": [{"measurement": "IC50", "setting": "Leucine aminopeptidase", "result": "35.1 µM (active)"}]}
{"smiles": "C[C@H](CO)N1C[C@H](C)[C@H](CN(C)Cc2ccc(C(F)(F)F)cc2)Oc2ccc(NC(=O)Nc3ccc(F)cc3)cc2CC1=O", "values": [{"measurement": "AC50", "setting": "[5]", "result": "2.19 µM (active)"}]}
{"smiles": "Cc1cccc(C2c3[nH]c4ccccc4c3CCN2C(=O)c2cc(CC(C)C)nc(=O)[nH]2)n1", "note": "(stereo not given)", "values": [{"measurement": "IC50", "setting": "Beta-lactamase [6]", "result": "> 59.6 µM (inactive)"}, {"measurement": "IC50", "setting": "Beta-lactamase [7]", "result": "> 59.6 µM (inactive)"}, {"measurement": "IC50", "setting": "Beta-lactamase [8]", "result": "> 59.6 µM (inactive)"}]}
{"smiles": "CCOc1c(C)cnc2c1c(=O)n(Cc1ccc(Cl)cc1)c(=O)n2C", "values": [{"measurement": "AC50", "setting": "[9]", "result": "7.77 µM (active)"}, {"measurement": "AC50", "setting": "[10]", "result": "8.07 µM (active)"}, {"measurement": "AC50", "setting": "[11]", "result": "12.1 µM (active)"}, {"measurement": "AC50", "setting": "[3]", "result": "12.5 µM (active)"}]}
{"smiles": "C[C@@H]1CN([C@H](C)CO)C(=O)c2cccc(NC(=O)CCCCCC(=O)Nc3ccccc3N)c2O[C@H]1CN(C)CC1CC1", "values": [{"measurement": "AC50", "setting": "[5]", "result": "3.12 µM (active)"}]}
{"smiles": "C[C@@H]1CCCCO[C@@H](CN(C)C(=O)Nc2ccc(C(F)(F)F)cc2)[C@@H](C)CN([C@H](C)CO)C(=O)c2cc(NS(=O)(=O)c3ccc(Cl)cc3)ccc2O1", "values": [{"measurement": "AC50", "setting": "[5]", "result": "3.05 µM (active)"}]}
{"smiles": "O=C(c1cccc(F)c1)N1CC(=O)N2[C@H](CO)[C@H](c3ccc(-c4cccnc4)cc3)[C@H]2C1", "values": [{"measurement": "AC50", "setting": "[12]", "result": "0.133 µM (active)"}, {"measurement": "AC50", "setting": "[13]", "result": "0.198 µM (active)"}, {"measurement": "AC50", "setting": "[14]", "result": "> 100 µM (inactive)"}, {"measurement": "AC50", "setting": "[15]", "result": "0.326 µM (active)"}, {"measurement": "AC50", "setting": "[16]", "result": "0.186 µM (active)"}]}
{"smiles": "Cc1cccc(NC(=O)CSc2nnc(NC(=O)CN3CCOCC3)s2)c1", "values": [{"measurement": "IC50", "setting": "Leucine aminopeptidase", "result": "14 µM (active)"}]}
